Measurements from patent US10196365B2, “Quinazoline derivative, preparation method therefor, and pharmaceutical composition and application thereof” (ARROMAX PHARMATECH CO., LTD., priority 2014, dated 2019).
Marks after values point to notes of the source that are not given here.

Legend:
[1] = test system: MDA-MB-453 (human breast cancer cell lines); assay: Growth inhibition test in tumor cells (CCK8), MDA-MB-453; type: cell-based; conditions: MDA-MB-453 cells, 72 h
Method: Growth Inhibition Tests of a Series of Compounds in Different Tumor Cells
i. Cell lines: A431 (human epithelial carcinoma cell lines), A549 (human lung cancer cell lines), NCI H1975 (human non-small cell lung cancer cell lines (HCC), HCC 827 (human non-small cell lung cancer cell line), MDA-MB-453 (human breast cancer cell lines)
MDA-MB-453 cell line: 90% L15+10% FBS; trypsin (a 0.25% (W/V) solution was prepared with […], 0.53 mM EDTA was added);
i) Logarithmic growth phase cells were collected and counted, the cells were suspended again with complete medium,
ii) The cell concentration was adjusted to an appropriate concentration, inoculated to 96 holes, each of which with 100 μL cells suspension.
iii) The cells were incubated in a 37° C., 100% relative humidity and 5% CO2 incubator, for 24 h.
i) Logarithmic growth phase cells were collected and counted, the cells were suspended again with complete medium, the cell concentration was adjusted to an appropriate concentration (determined according to the results of cell density optimization test), inoculated to 96 plates, each of which with […] cells suspension. The cells were incubated in a 37° C., 100% relative humidity and 5% CO2 incubator for 24 h.
ii) The test compounds were diluted to the corresponding concentration stated by culture medium, and the cells were inoculated as 25 μL/hole. The final concentration of the compound was from 10 μM to 0 μM, with a gradient of 4 times, and 10 concentration points totally.
iii) The cells were incubated in a 37° C., 100% relative humidity, 5% CO2 incubator for 72 h.
iv) Absorbing the culture medium, the complete medium containing 10% CCK-8 was added and incubated in the incubator of 37° C. for 2-4 h.
v) After a slight shake, the absorbance at 450 nm was measured by SpectraMax M5 Microplate Reader, taking the absorbance at 650 nm as a reference, the inhibition rate was calculated.
The IC50 curve fitting was performed by using the software Graphpad Prism 5 and the calculation formula log (inhibitor) vs. response to calculate the IC50 value.

[2] = test system: HCC 827 (human non-small cell lung cancer cell line); assay: Growth inhibition test in tumor cells (CCK8), HCC827; type: cell-based; conditions: HCC 827 cells, 72 h
[3] = test system: NCI H1975 (human non-small cell lung cancer cell lines); assay: Growth inhibition test in tumor cells (CCK8), NCI-H1975; type: cell-based; conditions: 72 h
[4] = test system: A431 (human epithelial carcinoma cell lines); assay: Growth inhibition test in tumor cells (CCK8), A431; type: cell-based; conditions: A-431, 72 h
Her-2 enzyme = Her-2 enzyme (Homo sapiens (Human), UniProt P04626); assay: HTRF kinEASE TK in vitro kinase assay, Her-2; type: biochemical; conditions: 30 min enzyme reaction, read-out: IC50 against Her-2
Sequence of Her-2 enzyme (P04626 23-1255): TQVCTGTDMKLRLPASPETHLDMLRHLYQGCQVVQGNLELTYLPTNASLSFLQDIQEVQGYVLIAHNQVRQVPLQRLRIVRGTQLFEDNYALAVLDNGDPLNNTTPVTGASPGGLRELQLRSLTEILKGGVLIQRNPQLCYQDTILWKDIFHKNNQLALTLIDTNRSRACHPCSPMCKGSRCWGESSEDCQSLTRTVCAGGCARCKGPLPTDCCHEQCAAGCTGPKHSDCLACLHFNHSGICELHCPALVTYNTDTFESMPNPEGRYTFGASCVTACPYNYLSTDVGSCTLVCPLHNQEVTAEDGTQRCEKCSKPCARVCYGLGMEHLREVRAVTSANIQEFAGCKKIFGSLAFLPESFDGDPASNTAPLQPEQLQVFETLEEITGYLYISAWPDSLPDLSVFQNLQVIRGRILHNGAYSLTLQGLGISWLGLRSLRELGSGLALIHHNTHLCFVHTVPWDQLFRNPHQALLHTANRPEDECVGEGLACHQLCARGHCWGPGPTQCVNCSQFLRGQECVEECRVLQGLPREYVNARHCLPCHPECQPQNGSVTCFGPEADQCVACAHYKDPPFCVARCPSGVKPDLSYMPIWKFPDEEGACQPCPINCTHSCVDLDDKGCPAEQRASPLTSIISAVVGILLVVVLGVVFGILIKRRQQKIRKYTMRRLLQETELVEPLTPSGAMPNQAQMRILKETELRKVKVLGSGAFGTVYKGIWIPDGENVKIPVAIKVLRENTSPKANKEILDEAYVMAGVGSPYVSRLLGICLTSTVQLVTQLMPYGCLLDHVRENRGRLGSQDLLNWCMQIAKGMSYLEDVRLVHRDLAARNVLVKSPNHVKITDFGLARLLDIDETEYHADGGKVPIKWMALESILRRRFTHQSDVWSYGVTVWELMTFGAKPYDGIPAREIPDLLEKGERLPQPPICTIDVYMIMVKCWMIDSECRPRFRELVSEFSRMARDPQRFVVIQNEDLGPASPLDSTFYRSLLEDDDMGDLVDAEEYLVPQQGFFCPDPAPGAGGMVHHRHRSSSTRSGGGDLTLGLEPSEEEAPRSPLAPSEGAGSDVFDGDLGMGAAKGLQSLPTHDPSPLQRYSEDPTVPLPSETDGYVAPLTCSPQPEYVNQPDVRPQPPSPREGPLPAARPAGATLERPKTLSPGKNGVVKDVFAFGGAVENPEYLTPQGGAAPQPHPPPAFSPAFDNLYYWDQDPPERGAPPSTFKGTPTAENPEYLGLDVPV

[5] = test system: A549 (human lung cancer cell lines); assay: Growth inhibition test in tumor cells (CCK8), A549; type: cell-based; conditions: 72 h
[6] = test system: NCI-H1975 nude mice transplanted tumor; assay: In vivo pharmacodynamics evaluation, NCI-H1975 nude mice transplanted tumor; parameters: species or system BALB/c nude mice; conditions: 20 mg/kg, qd, gavage, 14 days
Method: BALB/c nude mice, female, 6 to 7 weeks of age, weight 20 g±2 g, purchased from Shanghai silaike experimental animal Co. Ltd., SPF environment.
The logarithmic growth phase NCI-H1975 cells cultured in vitro were digested with trypsin, washed with PBS for three times, the cell survival rate was detected by trypan blue exclusion to be >90%, the cell concentration was adjusted to 1×10^7/mL with PBS, which was implanted subcutaneously in back forelimb of the nude mice with 0.2 mL/pcs under aseptic condition. After tumor formation, the tumor were cultured for two passages in vivo, the tumor were stripped out to sterile culture plate when growing to the volume of 300 to 500 mm^3, a small amount of PBS was added, the tumor tissue with vigorous growth were cut into about 1.5 mm^3 tumor blocks, inoculated in right armpit of the nude mice. The diameter of tumor was measured with vernier caliper, when the tumor grew to 100 to 200 mm^3, then the animal were randomly grouping, […], gavage administration, once a day or every other day, continuously administrated for 14 days (d14) and observed for 7 days (d22), the negative control group was administrated with the same amount of solvent (saline solution of 1% DMSO), during the period of administration and recovery, the body weight and tumor size of the nude mice were measured weekly 2 to 3 times. The tumor volume and relative tumor volume were calculated according to the measured data, and the calculation formula of the tumor volume (TV) was TV=1/2×a×b^2, of which a and b represent the tumor length and diameter respectively. The relative tumor volume (RTV) was calculated according to the measured results, and the calculation formula was: RTV=Vt/V0, wherein V0 represents the tumor volume at the beginning of the experiment, Vt represents the volume of the tumor each measured.

| Structure (SMILES) | IC50 [1] | IC50 [2] | IC50 [4] | IC50 (Her-2 enzyme) | IC50 [5] | IC50 [3] | RTV d22 [6] | T/C (%) d22 [6] | Inhibition rate (%) d22 ([6]; listed as Positive control) |
| --- | --- | --- | --- | --- | --- | --- | --- | --- | --- |
| C=C(Cl)C(=O)Nc1cc2c(Nc3ccc(F)c(Cl)c3)ncnc2cc1OCCOCC [Embodiment 27, N-(4-(3-chloro-4-fluorophenylamino)-7-(2-ethoxyethoxy)quinazolin-6-yl)2-chloroacrylamide] | 3.72 nM | 33.2 nM | 369 nM | – | – | 37.1 nM | – | – | – |
| CCOCCOc1cc2ncnc(Nc3ccc(OCc4cccc(F)c4)c(Cl)c3)c2cc1NC(=O)/C=C/CN(C)C [Embodiment 11, (E)-N-(4-(4-(3-fluorobenzyloxy)3-chlorophenylamino)-7-(2-ethoxyethoxy)quinazolin-6-yl)-4-(dimethylamino)but-2-enamide] | – | – | 79.5 nM | 262 nM | 2930 nM | 49.7 nM | – | – | – |
| COC[C@H](C)Oc1cc2ncnc(Nc3ccc(F)c(Cl)c3)c2cc1NC(=O)/C=C/CN(C)C [Embodiment 3, (S,E)-N-(4-(3-chloro-4-fluorophenylamino)-7-(2-methoxy-1-methylethoxy)quinazolin-6-yl)-4-(dimethylamino)but-2-enamide] | – | – | 16.7 nM | 482 nM | 1960 nM | 66.5 nM | – | – | – |
| CCOCCOc1cc2ncnc(Nc3ccc(OCCOC)c(Cl)c3)c2cc1NC(=O)/C=C/CN(C)C [Embodiment 15, (E)-N-(4-(3-chloro-4-(2-methoxyethoxy)phenylamino)-7-(2-ethoxyethoxy)quinazolin-6-yl)-4-(dimethylamino)but-2-enamide] | 1.66 nM | 3.43 nM | 20.1 nM | – | – | 7.3 nM | – | – | – |
| CCOCCOc1cc2ncnc(Nc3ccc(F)c(Cl)c3)c2cc1NC(=O)/C=C/Cl [Embodiment 31, (E)-N-(4-(3-chloro-4-fluorophenylamino)-7-(2-ethoxyethoxy)quinazolin-6-yl)-3-chloroacrylamide] | – | – | – | – | – | 7.43 nM | – | – | – |
| C=C(Br)C(=O)Nc1cc2c(Nc3ccc(F)c(Cl)c3)ncnc2cc1OCCOCC [Embodiment 28, N-(4-(3-chloro-4-fluorophenylamino)-7-(2-ethoxyethoxy)quinazolin-6-yl)2-bromoacrylamide] | 15.1 nM | 6.4 nM | 572 nM | – | – | 39.4 nM | – | – | – |
| C=CC(=O)Nc1cc2c(Nc3ccc(F)c(Cl)c3)ncnc2cc1OCCOCC [Embodiment 22, N-(4-(3-chloro-4-fluorophenylamino)-7-(2-ethoxyethoxy)quinazolin-6-yl)acrylamide] | 5.67 nM | 0.153 nM | 6.01 nM | – | – | 51.8 nM | – | – | – |
| CCOCCOc1cc2ncnc(Nc3ccc(NCCS(C)(=O)=O)c(Cl)c3)c2cc1NC(=O)/C=C/CN(C)C [Embodiment 20, (E)-N-(4-(3-chloro-4-((2-(methylsulfonyl)ethyl)amino)phenylamino)-7-(2-ethoxyethoxy)quinazolin-6-yl)-4-(dimethylamino)but-2-enamide] | 12.7 nM | 0.538 nM | 6.49 nM | – | – | 65.6 nM | – | – | – |
| CN(C)CC=CC(=O)Nc1cc2c(Nc3ccc(F)c(Cl)c3)ncnc2cc1O[C@H]1CCOC1 [Afatinib, N-[4-[(3-chloro-4-fluorophenyl)amino]-7-[[(3S)-tetrahydro-3-furyl]oxy]-6-quinazolinyl)-4-(dimethylamino)-but-2-enamide, reference compound] | – | – | – | – | 6780 nM | – | 1.67 ± 0.20 | 22.44% | 67.6** % |
| CCOCCOc1cc2ncnc(Nc3ccc(OCC(F)(F)F)c(Cl)c3)c2cc1NC(=O)/C=C/CN(C)C [Embodiment 13, (E)-N-(4-(3-chloro-4-(2,2,2-trifluoroethoxy)phenylamino)-7-(2-ethoxyethoxy)quinazolin-6-yl)-4-(dimethylamino)but-2-enamide] | 2.56 nM | 2.9 nM | 64.1 nM | – | – | 107 nM | – | – | – |
| C=CS(=O)(=O)Nc1cc2c(Nc3ccc(F)c(Cl)c3)ncnc2cc1OCCOCC [Embodiment 24, N-(4-(3-chloro-4-fluorophenylamino)-7-(2-ethoxyethoxy)quinazolin-6-yl)ethenesulfonamide] | 130 nM | 3.95 nM | 3.38 nM | – | – | 13.7 nM | – | – | – |
| CCOCCOc1ccc(Nc2ncnc3cc(OCCOCC)c(NC(=O)/C=C/CN(C)C)cc23)cc1Cl [Embodiment 17, (E)-N-(4-(3-chloro-4-(2-ethoxyethoxy)phenylamino)-7-(2-ethoxyethoxy)quinazolin-6-yl)-4-(dimethylamino)but-2-enamide] | 2.53 nM | 0.343 nM | 13.7 nM | – | – | 6.17 nM | – | – | – |
| C#CC(=O)Nc1cc2c(Nc3ccc(F)c(Cl)c3)ncnc2cc1OCCOCC [Embodiment 25, N-(4-(3-chloro-4-fluorophenylamino)-7-(2-ethoxyethoxy)quinazolin-6-yl)propiolamide] | 3.43 nM | 1.47 nM | 11.4 nM | – | – | 49.3 nM | – | – | – |
| C=C(F)C(=O)Nc1cc2c(Nc3ccc(F)c(Cl)c3)ncnc2cc1OCCOCC [Embodiment 26, N-(4-(3-chloro-4-fluorophenylamino)-7-(2-ethoxyethoxy)quinazolin-6-yl)-2-fluoroacrylamide] | 58.2 nM | 0.538 nM | 54.5 nM | – | – | 72.5 nM | – | – | – |

The next lines start with results.

| IC50 [1] | IC50 [2] | IC50 [4] | IC50 (Her-2 enzyme) | IC50 [5] | Structure (SMILES) | IC50 [3] | RTV d22 [6] | T/C (%) d22 [6] | Inhibition rate (%) d22 ([6]; listed as Positive control) |
| --- | --- | --- | --- | --- | --- | --- | --- | --- | --- |
| 18.3 nM | 0.153 nM | 148 nM | – | – | CCOCCOc1cc2ncnc(Nc3ccc(F)c(Cl)c3)c2cc1NC(=O)/C=C/C(F)(F)F [Embodiment 36, (E)-N-(4-(3-chloro-4-fluorophenylamino)-7-(2-ethoxyethoxy)quinazolin-6-yl)-4,4,4-trifluorobut-2-enamide] | 27.6 nM | – | – | – |
| 0.68 nM | 5.56 nM | 94.8 nM | – | – | CCOCCOc1cc2ncnc(Nc3ccc(F)c(Cl)c3)c2cc1NC(=O)/C=C\C#N [Embodiment 38, (Z)—N-(4-(3-chloro-4-fluorophenylamino)-7-(2-ethoxyethoxy)quinazolin-6-yl)-3-cyanoacrylamide] | 18.4 nM | – | – | – |
| – | – | – | 10.9 nM | 3530 nM | CCOCCOc1cc2ncnc(Nc3ccc(F)c(Cl)c3)c2cc1NC(=O)/C=C/CN(CC)CC [Embodiment 33, (E)-N-(4-(3-chloro-4-fluorophenylamino)-7-(2-ethoxyethoxy)quinazolin-6-yl)-4-(diethylamino)but-2-enamide] | – | – | – | – |
| – | – | – | – | 4000 nM | CCOCCOc1cc2ncnc(Nc3ccc(F)c(Cl)c3)c2cc1NC(=O)/C=C\Cl [Embodiment 32, (Z)—N-(4-(3-chloro-4-fluorophenylamino)-7-(2-ethoxyethoxy)quinazolin-6-yl)-3-chloroacrylamide] | 1.6 nM | – | – | – |
| 21.6 nM | 0.987 nM | 207 nM | – | – | CCOCCOc1cc2ncnc(Nc3ccc(F)c(Cl)c3)c2cc1NC(=O)/C=C/C(=O)OC [Embodiment 37, methyl (E)-4-(4-((3-chloro-4-fluorophenylamino)-7-(2-ethoxyethoxy)quinazolin-6-yl)amino)-4-oxobut-2-enoate] | 35.2 nM | – | – | – |
| 4 nM | 4.87 nM | 297 nM | – | – | CCOCCOc1cc2ncnc(Nc3ccc(F)c(Cl)c3)c2cc1NC(=O)/C=C/Br [Embodiment 30, (E)-N-(4-(3-chloro-4-fluorophenylamino)-7-(2-ethoxyethoxy)quinazolin-6-yl)-3-bromoacrylamide] | 8.22 nM | – | – | – |
